{"source": "patent US20090156666A1", "about": "“NOVEL COMPOSITIONS AND USE THEREOF FOR THE TREATMENT, CO-TREATMENT OR PREVENTION OF INFLAMMATORY DISORDERS” (priority 2007, published 2009)", "key": {"[1]": {"system": "collagen I", "test": "Gene expression (mRNA, RT-PCR) in normal human chondrocytes: collagen I", "type": "cell-based", "details": "50 μmol/L; 4 hrs; % of unstimulated cells (100%)", "protocol": "(§1) The effect of a MA/HO (1:3 w/w) mixture in combination with glucosamine was tested on the expression of human aggrecan, collagen I, collagen II, or chondrocyte transcription factors (SOX-6, -9) in vitro in normal human chondrocytes (derived from knee) (CC-2550; Cambrex, respectively). A control experiment without the compounds was done concomitantly to compare the expression of these genes (percentage expression of gene in controls was set to 100%). […] The level of mRNA was determined by RT-PCR (Richard et al. Mol. Nutr. Food Res. 49, 431-442, 2005) and expressed relative to the level observed in cells cultured without the substances. The given values indicate the level of gene expression (in % of unstimulated cells [set at 100%] for anabolic and anti-catabolic genes; in % of IL1β-treated cells [set at 100%], for catabolic genes). […] Yet, when combined the observed increase in gene expression exceeded the expected one reflecting synergism."}, "[2]": {"system": "nitric oxide (NO) synthesis in RAW264.7 cells", "test": "Inhibition of nitric oxide synthesis in LPS-stimulated RAW264.7 macrophages (Griess reaction)", "type": "cell-based, murine", "details": "single substances"}, "[3]": {"system": "human aggrecan", "test": "Gene expression (mRNA, RT-PCR) in normal human chondrocytes: aggrecan", "type": "cell-based", "details": "50 μmol/L; 4 hrs; % of unstimulated cells (100%)", "protocol": "as §1"}, "[4]": {"system": "collagen II", "test": "Gene expression (mRNA, RT-PCR) in normal human chondrocytes: collagen II", "type": "cell-based", "details": "50 μmol/L; 4 hrs; % of unstimulated cells (100%)", "protocol": "as §1"}, "[5]": {"system": "TMP-I", "test": "Gene expression (mRNA, RT-PCR) in normal human chondrocytes: TMP-I (anti-catabolic)", "type": "cell-based", "details": "50 μmol/L; 4 hrs; % of unstimulated cells (100%)", "source_text": "as §1, with “Catabolic events are controlled by the expression of genes, e.g. those genes that encode matrix metalloproteinases (MMPs) that eventually break down collagen or proteoglycans (ADAMTS-4, -5). Of the MMPs, MMP-1 and MMP-3 have a major role in breaking down the ECM in cartilage degradation. Some genes including TIMPS-1 (tissue-inhibitor of MMPs) have anti-catabolic effects and thus contribute to prevention of tissue erosion. The effect” for “The effect”"}, "[6]": {"system": "ADAMTS-4", "test": "Gene expression (mRNA, RT-PCR) in normal human chondrocytes: ADAMTS-4 (catabolic)", "type": "cell-based", "details": "50 μmol/L; unstim. 4 d; % of control (100%)", "source_text": "Catabolic events are controlled by the expression of genes, e.g. those genes that encode matrix metalloproteinases (MMPs) that eventually break down collagen or proteoglycans (ADAMTS-4, -5). Of the MMPs, MMP-1 and MMP-3 have a major role in breaking down the ECM in cartilage degradation. Some genes including TIMPS-1 (tissue-inhibitor of MMPs) have anti-catabolic effects and thus contribute to prevention of tissue erosion. The effect of a MA/HO (1:3 w/w) mixture in combination with glucosamine was tested on the expression of human aggrecan, collagen I, collagen II, or chondrocyte transcription factors (SOX-6, -9) in vitro in normal human chondrocytes (derived from knee) (CC-2550; Cambrex, respectively). A control experiment without the compounds was done concomitantly to compare the expression of these genes (percentage expression of gene in controls was set to 100%). […] The level of mRNA was determined by RT-PCR (Richard et al. Mol. Nutr. Food Res. 49, 431-442, 2005) and expressed relative to the level observed in cells cultured without the substances. […] […] Yet, when combined the observed increase in gene expression exceeded the expected one reflecting synergism."}, "[7]": {"system": "MMP-9", "test": "Gene expression (mRNA, RT-PCR) in normal human chondrocytes: MMP-9 (catabolic)", "type": "cell-based", "details": "50 μmol/L; stim. 4 hrs; % of IL1β-treated cells (100%)", "source_text": "Catabolic events are controlled by the expression of genes, e.g. those genes that encode matrix metalloproteinases (MMPs) that eventually break down collagen or proteoglycans (ADAMTS-4, -5). Of the MMPs, MMP-1 and MMP-3 have a major role in breaking down the ECM in cartilage degradation. Some genes including TIMPS-1 (tissue-inhibitor of MMPs) have anti-catabolic effects and thus contribute to prevention of tissue erosion. The effect of a MA/HO (1:3 w/w) mixture in combination with glucosamine was tested on the expression of human aggrecan, collagen I, collagen II, or chondrocyte transcription factors (SOX-6, -9) in vitro in normal human chondrocytes (derived from knee) (CC-2550; Cambrex, respectively). A control experiment without the compounds was done concomitantly to compare the expression of these genes (percentage expression of gene in controls was set to 100%). […] The level of mRNA was determined by RT-PCR (Richard et al. Mol. Nutr. Food Res. 49, 431-442, 2005) and expressed relative to the level observed in cells cultured without the substances. The given values indicate the level of gene expression (in % of unstimulated cells [set at 100%] for anabolic and anti-catabolic genes; in % of IL1β-treated cells [set at 100%], for catabolic genes). […] Yet, when combined the observed increase in gene expression exceeded the expected one reflecting synergism."}}, "data": [{"smiles": "N[C@H]1C(O)O[C@H](CO)[C@@H](O)[C@@H]1O.O=S(=O)(O)O", "note": "(some centres unmarked) [Glucosamine sulfate, glucosamine sulfate]", "values": [{"measurement": "Collagen 1 gene expression level", "setting": "[1]", "result": 121, "unit": "%"}, {"measurement": "anti-inflammatory activity (in words)", "setting": "[2]; LPS-stimulated, nitric oxide", "result": "marginal anti-inflammatory"}, {"measurement": "IC50", "setting": "[2]; Mus musculus, LPS 1 μg/ml, 24 hours", "result": "> 100", "unit": "µM"}, {"measurement": "Aggrecan gene expression level", "setting": "[3]", "result": 81, "unit": "%"}, {"measurement": "Collagen II gene expression level", "setting": "[4]", "result": 154, "unit": "%"}, {"measurement": "TMP-I gene expression level", "setting": "[5]", "result": 110, "unit": "%"}, {"measurement": "ADAMTS-4 gene expression level", "setting": "[6]", "result": 101, "unit": "%"}, {"measurement": "MMP-9 gene expression level", "setting": "[7]", "result": 114, "unit": "%"}]}]}
